Usually IC50 stands for the concentration at which inhibition is half-maximal.

From paper PMC7995890, “Inhibition of Phosphodiesterase 5 Promotes the Aromatase-Mediated Estrogen Biosynthesis in Osteoblastic Cells by Activation of cGMP/PKG/SHP2 Pathway” (Frontiers in Endocrinology, 2021) come the findings set out here.

The target of the experiment is PDE5A (Homo sapiens, UniProt O76074). The experiment can be described thus: PDE-Glo assay with purified recombinant human PDE5A; supported by cellular thermal shift assay in HEK293T lysate. In kind it is biochemical.

Consider `COc1ccc(-c2oc3c(CC=C(C)C)c(OCc4ccccc4)cc(O)c3c(=O)c2O)cc1` [compound 14, 7-O-benzylicaritin], for which the IC50 came out at 9.91 µM.
